{"source": "patent US20170087174A1", "about": "“COMBINATION THERAPY REGIMEN FOR TREATMENT OF HCV” (JANSSEN PHARMACEUTICALS, INC., priority 2015, published 2017)", "key": {"[1]": {"assay": "PK of single agents vs fixed dose combinations (FDC), single oral dose in healthy volunteers", "format": "in vivo, human", "conditions": "for Cmax / AUC(0-t) / AUC(0-inf) / Tmax: human, plasma, oral; for Cmax: read-out: Cmax (mean ± SD); for AUC(0-t): read-out: AUClast (mean ± SD); for AUC(0-inf): read-out: AUC∞ (mean ± SD); for Tmax: read-out: tmax (median [range])", "procedure": "SMV (100 mg), ODV (50 mg), and Compound (III) (800 mg) were administered as three different formulations or together as single doses in vivo to healthy volunteers. The arms of the study included: • Arm 1 (Reference Arm): Single oral doses of single agents, one SMV 100-mg capsule, one ODV 50-mg tablet as granule layered solid dispersion with copovidone and poloxamers, and two Compound (III) 400-mg tablets, administered together. • Arm 2: Single oral dose of fixed dose combination (FDC02): SMV 100 mg+ODV 50 mg as a spray dried solid dispersion with HPMC-AS L in a ratio ODV/HPMC-AS L 1/1 w/w+Compound (III) 800 mg • Arm 3: Single oral dose of fixed dose combination (FDC04): SMV 100 mg+ODV 50 mg as a spray dried solid dispersion with HPMC-AS L in a ratio ODV/HPMC-AS L 1/3 w/w+Compound (III) 800 mg • Arm 4: Single oral dose of fixed dose combination (FDC01): SMV 100 mg+ODV 50 mg as a spray dried solid dispersion with copovidone and poloxamers+Compound (III) 800 mg\nPK parameters, including Cmax, tmax, AUClast, and AUC∞ were measured for Compound (III), ODV, SMV, and metabolites Compound A-I and Compound A-3 for each Arm of the study. Arms that included fixed dose combinations (FDC) (Arm 2, Arm 3, and Arm 4) were then compared to a single oral dose (Arm 1, the reference Arm). Table 9, Table 10, Table 11, Table 12 and Table 13 display relevant PK parameters and FIG. 9, FIG. 10, FIG. 11, FIG. 12, and FIG. 13 depict the plasma concentration over time of SMV, ODV, Compound A-1, and Compound A-3 for each Arm of the study."}, "[2]": {"system": "CYP (cytochrome P450 enzymes)", "assay": "CYP inhibition in vitro", "conditions": "on any CYP"}, "OATP1B1": {"molecular_target": "T1, OATP1B1 (Homo sapiens, UniProt Q9Y6L6)", "T1 sequence (Q9Y6L6 1-691)": "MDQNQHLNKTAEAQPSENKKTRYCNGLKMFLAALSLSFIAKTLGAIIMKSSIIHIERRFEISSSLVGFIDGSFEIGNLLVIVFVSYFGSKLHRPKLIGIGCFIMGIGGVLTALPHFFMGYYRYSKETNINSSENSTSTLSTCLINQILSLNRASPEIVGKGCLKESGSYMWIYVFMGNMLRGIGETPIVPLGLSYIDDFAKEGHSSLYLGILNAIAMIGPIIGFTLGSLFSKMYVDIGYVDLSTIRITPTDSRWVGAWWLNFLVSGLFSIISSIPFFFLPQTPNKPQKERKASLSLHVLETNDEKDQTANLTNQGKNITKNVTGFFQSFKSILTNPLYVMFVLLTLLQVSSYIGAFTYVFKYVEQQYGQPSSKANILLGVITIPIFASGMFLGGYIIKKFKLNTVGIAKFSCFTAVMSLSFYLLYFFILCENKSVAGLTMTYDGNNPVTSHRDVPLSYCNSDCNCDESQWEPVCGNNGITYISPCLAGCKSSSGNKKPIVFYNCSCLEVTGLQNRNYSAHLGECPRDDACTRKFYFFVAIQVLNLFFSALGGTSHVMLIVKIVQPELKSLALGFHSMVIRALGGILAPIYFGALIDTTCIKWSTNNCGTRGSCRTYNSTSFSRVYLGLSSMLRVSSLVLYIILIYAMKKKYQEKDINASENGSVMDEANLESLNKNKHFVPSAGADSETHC", "conditions": "in vitro, cited from earlier work"}, "[3]": {"assay": "Phase-1 drug-drug interaction study in healthy volunteers (Compound (III) 800 mg, SMV 150 mg, Odalasvir 150 mg loading then 50 mg, once daily): plasma PK", "format": "in vivo, human", "conditions": "both, human, in vivo", "text": "The following daily doses were employed:"}, "P-gp": {"molecular_target": "P-gp (Homo sapiens, UniProt P08183)", "sequence (P08183 whole entry)": "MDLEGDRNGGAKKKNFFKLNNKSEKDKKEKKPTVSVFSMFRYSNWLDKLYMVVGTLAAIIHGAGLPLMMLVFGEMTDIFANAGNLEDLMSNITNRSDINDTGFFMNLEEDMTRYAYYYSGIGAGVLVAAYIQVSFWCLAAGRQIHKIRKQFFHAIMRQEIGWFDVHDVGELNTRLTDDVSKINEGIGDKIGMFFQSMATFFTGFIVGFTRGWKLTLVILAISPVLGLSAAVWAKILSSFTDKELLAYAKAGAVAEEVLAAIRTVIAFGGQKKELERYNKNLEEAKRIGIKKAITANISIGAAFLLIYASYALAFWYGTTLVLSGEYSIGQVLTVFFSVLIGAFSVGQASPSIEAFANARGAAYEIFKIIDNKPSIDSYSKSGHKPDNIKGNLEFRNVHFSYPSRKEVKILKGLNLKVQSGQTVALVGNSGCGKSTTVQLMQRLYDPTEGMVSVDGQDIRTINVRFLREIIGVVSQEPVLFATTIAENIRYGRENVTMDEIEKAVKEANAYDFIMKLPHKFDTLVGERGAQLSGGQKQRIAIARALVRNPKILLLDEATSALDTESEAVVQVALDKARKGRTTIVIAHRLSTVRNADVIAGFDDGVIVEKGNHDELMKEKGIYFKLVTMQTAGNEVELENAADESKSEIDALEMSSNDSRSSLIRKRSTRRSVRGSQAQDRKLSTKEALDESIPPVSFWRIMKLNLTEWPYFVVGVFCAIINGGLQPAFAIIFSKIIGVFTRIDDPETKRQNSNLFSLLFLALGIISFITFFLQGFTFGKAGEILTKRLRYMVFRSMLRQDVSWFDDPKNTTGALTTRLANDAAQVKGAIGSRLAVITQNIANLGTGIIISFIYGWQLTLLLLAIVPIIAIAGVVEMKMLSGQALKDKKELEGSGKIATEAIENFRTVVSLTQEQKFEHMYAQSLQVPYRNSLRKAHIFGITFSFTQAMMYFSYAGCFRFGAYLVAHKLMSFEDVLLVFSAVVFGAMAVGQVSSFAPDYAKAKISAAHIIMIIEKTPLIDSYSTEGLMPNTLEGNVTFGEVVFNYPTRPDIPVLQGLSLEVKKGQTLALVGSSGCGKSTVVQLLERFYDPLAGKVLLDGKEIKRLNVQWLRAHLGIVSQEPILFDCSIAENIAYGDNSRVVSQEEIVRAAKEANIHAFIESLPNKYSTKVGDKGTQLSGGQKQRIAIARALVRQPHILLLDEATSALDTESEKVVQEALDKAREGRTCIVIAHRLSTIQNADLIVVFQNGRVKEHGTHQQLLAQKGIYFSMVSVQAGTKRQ", "conditions": "in vitro; cited from earlier work"}, "[4]": {"conditions": "Arm 1 (reference): single agents together"}, "[5]": {"conditions": "Arm 2 (FDC02) vs reference (Arm 1)"}, "[6]": {"conditions": "Arm 3 (FDC04) vs reference (Arm 1)"}, "[7]": {"conditions": "Arm 4 (FDC01) vs reference (Arm 1)"}}, "note": "Where two headings read alike, the source gives them in different places.", "data": [{"compound": "COc1ccc2c(O[C@@H]3C[C@H]4C(=O)N[C@]5(C(=O)NS(=O)(=O)C6CC6)C[C@H]5/C=C\\CCCCN(C)C(=O)[C@@H]4C3)cc(-c3nc(C(C)C)cs3)nc2c1C", "note": "[SMV, Simeprevir, reference compound]", "values": [{"measurement": "t1/2term (mean ± SD)", "setting": "[1]; [4]", "result": "8.3 ± 1.8", "unit": "h"}, {"measurement": "Least Square Means Ratio, AUClast", "setting": "[1]; [5]", "result": 127.79, "unit": "%"}, {"measurement": "Least Square Means Ratio, AUC∞", "setting": "[1]; [5]", "result": 126.19, "unit": "%"}, {"measurement": "Least Square Means Ratio, Cmax", "setting": "[1]; [5]", "result": 116.50, "unit": "%"}, {"measurement": "t1/2term (mean ± SD)", "setting": "[1]; Arm 2: FDC02", "result": "8.7 ± 2.3", "unit": "h"}, {"measurement": "Least Square Means Ratio, AUClast", "setting": "[1]; [6]", "result": 133.85, "unit": "%"}, {"measurement": "Least Square Means Ratio, AUC∞", "setting": "[1]; [6]", "result": 132.28, "unit": "%"}, {"measurement": "Least Square Means Ratio, Cmax", "setting": "[1]; [6]", "result": 115.24, "unit": "%"}, {"measurement": "t1/2term (mean ± SD)", "setting": "[1]; Arm 3: FDC04", "result": "9.1 ± 1.6", "unit": "h"}, {"measurement": "Least Square Means Ratio, AUClast", "setting": "[1]; [7]", "result": 117.50, "unit": "%"}, {"measurement": "Least Square Means Ratio, AUC∞", "setting": "[1]; [7]", "result": 116.00, "unit": "%"}, {"measurement": "Least Square Means Ratio, Cmax", "setting": "[1]; [7]", "result": 108.22, "unit": "%"}, {"measurement": "t1/2term (mean ± SD)", "setting": "[1]; Arm 4: FDC01", "result": "8.5 ± 1.5", "unit": "h"}, {"measurement": "Cmax", "setting": "[1]; Arm 1 (reference): single agents together, SMV 100-mg capsule, ODV 50-mg tablet, two Compound (III) 400-mg tablets", "result": "777 ± 225", "unit": "ng/mL"}, {"measurement": "AUC(0-t)", "setting": "[1]; [4]", "result": "9420 ± 3380", "unit": "ng·h/mL"}, {"measurement": "AUC(0-inf)", "setting": "[1]; [4]", "result": "9920 ± 3430", "unit": "ng·h/mL"}, {"measurement": "Tmax", "setting": "[1]; [4]", "result": 6, "unit": "h"}, {"measurement": "Cmax", "setting": "[1]; Arm 2: FDC02, SMV 100 mg + ODV 50 mg (ODV/HPMC-AS L 1/1 w/w) + Compound (III) 800 mg", "result": "942 ± 431", "unit": "ng/mL"}, {"measurement": "AUC(0-t)", "setting": "[1]; Arm 2: FDC02", "result": "12700 ± 6260", "unit": "ng·h/mL"}, {"measurement": "AUC(0-inf)", "setting": "[1]; Arm 2: FDC02", "result": "13200 ± 6430", "unit": "ng·h/mL"}, {"measurement": "Tmax", "setting": "[1]; Arm 2: FDC02", "result": 6, "unit": "h"}, {"measurement": "Cmax", "setting": "[1]; Arm 3: FDC04, SMV 100 mg + ODV 50 mg (ODV/HPMC-AS L 1/3 w/w) + Compound (III) 800 mg", "result": "906 ± 321", "unit": "ng/mL"}, {"measurement": "AUC(0-t)", "setting": "[1]; Arm 3: FDC04", "result": "12900 ± 5830", "unit": "ng·h/mL"}, {"measurement": "AUC(0-inf)", "setting": "[1]; Arm 3: FDC04", "result": "13400 ± 6020", "unit": "ng·h/mL"}, {"measurement": "Tmax", "setting": "[1]; Arm 3: FDC04", "result": 6, "unit": "h"}, {"measurement": "Cmax", "setting": "[1]; Arm 4: FDC01, SMV 100 mg + ODV 50 mg (copovidone and poloxamers) + Compound (III) 800 mg", "result": "856 ± 318", "unit": "ng/mL"}, {"measurement": "AUC(0-t)", "setting": "[1]; Arm 4: FDC01", "result": "11600 ± 6300", "unit": "ng·h/mL"}, {"measurement": "AUC(0-inf)", "setting": "[1]; Arm 4: FDC01", "result": "12100 ± 6410", "unit": "ng·h/mL"}, {"measurement": "Tmax", "setting": "[1]; Arm 4: FDC01", "result": 6, "unit": "h"}, {"measurement": "CYP inhibition potential (in words)", "setting": "[2]", "result": "limited"}, {"measurement": "OATP1B1 inhibition (in words)", "setting": "OATP1B1", "result": "strong in vitro inhibition"}, {"measurement": "IC50", "setting": "OATP1B1; read-out: OATP1B1 inhibition IC50", "result": 300, "unit": "nM"}, {"measurement": "AUC0-24", "setting": "[3]", "result": 41258, "unit": "ng·h/mL"}, {"measurement": "Cmax", "setting": "[3]", "result": 2957, "unit": "ng/mL"}, {"measurement": "P-gp inhibition (in words)", "setting": "P-gp", "result": "strong/moderate"}]}]}
